From patent publication US20260265189A1, “NOVEL COMPOUND, AND PHARMACEUTICAL COMPOSITION COMPRISING SAME AS ACTIVE INGREDIENT” (SAPIENSBIO INC., priority 2022, published 2026) come the findings set out here.

This assay deals with α-SMA expression in MRC5 cells. Briefly: inhibition of α-SMA expression in MRC5 cells, image screening method. The assay is classed as cell-based. The note with it: Homo sapiens; MRC5, compound 10 μM, TGF-β1 5 ng/mL, 72 hours, relative to TGF-β1 alone; read-out: Inhibitory activity (α-SMA expression inhibition). The protocol:
The ability of the compounds according to the present invention to inhibit the expression of α-SMA, which is a biomarker for pulmonary fibrosis, was evaluated by an image screening method. MRC5 cells were treated with the compound (10 μM) or DMSO under the condition of TGF-31 (5 ng/mL). 72 hours later, the cells were fixed with a 4% formaldehyde solution, treated with a 0.1% Triton-x100 solution, and treated with a 1% BSA solution to mask non-specific binding caused by antibodies. Anti-α-SMA-FITC (Sigma Aldrich) and anti-GAPDH (Cell Signaling Technology) were used as primary antibodies, and anti-mouse-TRITC was used as a secondary antibody. Imaging and analysis of the results were performed using Cytation5_Gen5_Version 3.12.08 (Bio Tek). Relative to the α-SMA expression level when TGF-31 was treated alone, the α-SMA expression level when both the compound and TGF-31 were treated was calculated as the ability of α-SMA expression inhibition of the corresponding compound.

What is called inhibition is how much of the control response was suppressed.

For the molecule `CS(=O)(=O)N[C@H]1CCN(C(=O)N2CCN(c3ccc(F)cc3)c3cc(F)ccc32)C1` [Compound 16, (S)-N-(1-(6-fluoro-4-(4-fluorophenyl)-1,2,3,4-tetrahydroquinoxaline-1-carbonyl)pyrrolidin-3-yl)methanesulfonamide], the inhibition at 10 µM was in the range of 10 to 30%. For `O=C(N[C@H]1CCNC1)N1CCN(c2cnccn2)c2ccccc21` [Compound 80, (S)-4-(pyrazin-2-yl)-N-(pyrrolidin-3-yl)-3,4-dihydroquinoxaline-1(2H)-carboxamide], the inhibition at 10 µM is 10 to 30%. As for `O=C(N[C@H]1CCNC1)N1CCN(c2ccc(F)cc2)c2cc(F)ccc21` [Compound 8, (S)-6-fluoro-4-(4-fluorophenyl)-N-(pyrrolidin-3-yl)-3,4-dihydroquinoxaline-1(2H)-carboxamide], the inhibition at 10 µM was no less than 70%. As to `N#Cc1ccc(N2CCN(C(=O)NC[C@H]3CCNC3)c3ccccc32)cc1` [Compound 79, (S)-4-(4-cyanophenyl)-N-(pyrrolidin-3-ylmethyl)-3,4-dihydroquinoxaline-1(2H)-carboxamide], the inhibition at 10 µM lay in the range of 10 to 30%.

In the case of `CC(C)CN[C@H]1CCN(C(=O)N2CCN(c3ccc(F)cc3)c3cc(F)ccc32)C1` [Compound 13, (S)-(6-fluoro-4-(4-fluorophenyl)-3,4-dihydroquinoxalin-1(2H)-yl)(3-(isobutylamino)pyrrolidin-1-yl)methanone], the inhibition at 10 µM is no less than 70%. Turning to `CS(=O)(=O)N1CC[C@@H](NC(=O)N2CCN(c3ccc(F)cc3)c3cc(F)ccc32)C1` [Compound 7, (R)-6-fluoro-4-(4-fluorophenyl)-N-(1-(methylsulfonyl)pyrrolidin-3-yl)-3,4-dihydroquinoxaline-1(2H)-carboxamide], the inhibition at 10 µM lay in the range of 10 to 30%. In the case of `CN1CC[C@@H](CNC(=O)N2CCN(c3ccc(F)cc3)c3ccccc32)C1` [Compound 58, (S)-4-(4-fluorophenyl)-N-((1-methylpyrrolidin-3-yl)methyl)-3,4-dihydroquinoxaline-1(2H)-carboxamide] it was 30 to 50%; in that of `CC(C)N1CC[C@@H](CNC(=O)N2CCN(c3ccc(F)cc3)c3cc(F)ccc32)C1` [Compound 26, (S)-6-fluoro-4-(4-fluorophenyl)-N-((1-isopropylpyrrolidin-3-yl)methyl)-3,4-dihydroquinoxaline-1(2H)-carboxamide], 50 to 70%. Consider `CC(C)(C)CC(=O)N1CCN(C(=O)NCC2CCNCC2)c2ccccc21` [Compound 130, 4-(3,3-dimethylbutanoyl)-N-(piperidin-4-ylmethyl)-3,4-dihydroquinoxaline-1(2H)-carboxamide], for which the inhibition at 10 µM was 10 to 30%. For `CC(C)CN1CCC[C@@H]1CNC(=O)N1CCN(c2ccc(F)cc2)c2cc(F)ccc21` [Compound 24, (R)-6-fluoro-4-(4-fluorophenyl)-N-((1-isobutylpyrrolidin-2-yl)methyl)-3,4-dihydroquinoxaline-1(2H)-carboxamide], the inhibition at 10 µM was no less than 70%.

In the case of `CN[C@H]1CCN(C(=O)N2CCN(Cc3ccccc3)c3ccccc32)C1` [Compound 86, (S)-(4-benzyl-3,4-dihydroquinoxalin-1(2H)-yl)(3-(methylamino)pyrrolidin-1-yl)methanone], the inhibition at 10 µM lay within 10 to 30%. Consider `CC(C)CN1CC(NC(=O)N2CCN(c3ccc(F)cc3)c3cc(F)ccc32)C1` [Compound 43, 6-fluoro-4-(4-fluorophenyl)-N-(1-isobutylazetidin-3-yl)-3,4-dihydroquinoxaline-1(2H)-carboxamide], for which the inhibition at 10 µM was no less than 70%. As for `CN1CC[C@H](CNC(=O)N2CCN(Cc3ccccc3F)c3ccccc32)C1` [Compound 90, (R)-4-(2-fluorobenzyl)-N-((1-methylpyrrolidin-3-yl)methyl)-3,4-dihydroquinoxaline-1(2H)-carboxamide], the inhibition at 10 µM fell in the range of 30 to 50%.

Regarding `CC(C)N1CC[C@H](NC(=O)N2CCN(c3ccccn3)c3ccccc32)C1` [Compound 69, (S)-N-(1-isopropylpyrrolidin-3-yl)-4-(pyridin-2-yl)-3,4-dihydroquinoxaline-1(2H)-carboxamide], the inhibition at 10 µM lay in the range of 10 to 30%. In the case of `O=C(NC[C@H]1CCNC1)N1CCN(c2ccc(F)cc2)c2cc(F)ccc21` [Compound 17, (S)-6-fluoro-4-(4-fluorophenyl)-N-(pyrrolidin-3-ylmethyl)-3,4-dihydroquinoxaline-1(2H)-carboxamide] it was 30 to 50%. As for `O=C(NC1COC1)N1CCN(Cc2ccccn2)c2ccccc21` [Compound 99, N-(oxetan-3-yl)-4-(pyridin-2-ylmethyl)-3,4-dihydroquinoxaline-1(2H)-carboxamide], the inhibition at 10 µM lay in the range of 30 to 50%. With `O=C(N[C@@H]1CCN(C(=O)C(F)(F)F)C1)N1CCN(c2ccc(F)cc2)c2cc(F)ccc21` [Compound 5, (R)-6-fluoro-4-(4-fluorophenyl)-N-(1-(2,2,2-trifluoroacetyl)pyrrolidin-3-yl)-3,4-dihydroquinoxaline-1(2H)-carboxamide], the inhibition at 10 µM lay in the range of 10 to 30%.

Turning to `O=C(NC[C@H]1CCCN1)N1CCN(c2ccccn2)c2ccccc21` [Compound 72, (R)-4-(pyridin-2-yl)-N-(pyrrolidin-2-ylmethyl)-3,4-dihydroquinoxaline-1(2H)-carboxamide], the inhibition at 10 µM was 30 to 50%. For the molecule `N[C@H]1CCN(C(=O)N2CCN(c3ccc(F)cc3)c3cc(F)ccc32)C1` [Compound 11, (S)-(3-aminopyrrolidin-1-yl)(6-fluoro-4-(4-fluorophenyl)-3,4-dihydroquinoxalin-1(2H)-yl)methanone], the inhibition at 10 µM was in the range of 30 to 50%.

Regarding `CC(C)N1CCC(NC(=O)N2CCN(c3cnccn3)c3ccccc32)CC1` [Compound 83, N-(1-isopropylpiperidin-4-yl)-4-(pyrazin-2-yl)-3,4-dihydroquinoxaline-1(2H)-carboxamide], the inhibition at 10 µM lay in the range of 10 to 30%. For `CC(=O)N[C@H]1CCN(C(=O)N2CCN(c3ccc(F)cc3)c3cc(F)ccc32)C1` [Compound 15, (S)-N-(1-(6-fluoro-4-(4-fluorophenyl)-1,2,3,4-tetrahydroquinoxaline-1-carbonyl)pyrrolidin-3-yl)acetamide], the inhibition at 10 µM lay within 10 to 30%. As for `O=C(N[C@@H]1CCOC1)N1CCN(c2cccnc2)c2ccccc21` [Compound 73, (R)-4-(pyridin-3-yl)-N-(tetrahydrofuran-3-yl)-3,4-dihydroquinoxaline-1(2H)-carboxamide], the inhibition at 10 µM was in the range of 30 to 50%. In the case of `O=C(NCC1CC1)N1CCN(c2ccc(F)cc2)c2cc(F)ccc21` [Compound 28, N-(cyclopropylmethyl)-6-fluoro-4-(4-fluorophenyl)-3,4-dihydroquinoxaline-1(2H)-carboxamide] it was 10 to 30%; in that of `CC(C)CN1CC(CNC(=O)N2CCN(c3ccc(F)cc3)c3cc(F)ccc32)C1` [Compound 47, 6-fluoro-4-(4-fluorophenyl)-N-((1-isobutylazetidin-3-yl)methyl)-3,4-dihydroquinoxaline-1(2H)-carboxamide], 50 to 70%; in that of `CC(C)CN1CC[C@@H](CNC(=O)N2CCN(c3ccc(F)cc3)c3cc(F)ccc32)C1` [Compound 27, (S)-6-fluoro-4-(4-fluorophenyl)-N-((1-isobutylpyrrolidin-3-yl)methyl)-3,4-dihydroquinoxaline-1(2H)-carboxamide], no less than 70%.
